Test results published in ChEMBL document CHEMBL1201862, “PubChem BioAssay data set” (2004).
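Five compound concentrations were applied to cells in 96-well plates for 48 hours; endpoints were derived by simple linear interpolation of the resulting dose-response curve. The concentration for 50% growth inhibition is given as GI50.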 The source made the active and inactive calls. Cut-off read from the data, not from the text of the source: active = GI50 up to about 1.1 µM and inactive = higher.

Assays:
Assay in all cases: NCI anticancer screen, dose series, 48 h
UACC-62 = system: UACC-62
SF-295 = system: SF-295
RXF 393 = system: RXF 393
M14 = system: M14
PC-3 = system: PC-3
786-0 = system: 786-0
MDA-MB-231 = system: MDA-MB-231
HCC 2998 = system: HCC 2998
NCI-H226 = system: NCI-H226
SK-MEL-2 = system: SK-MEL-2
DU-145 = system: DU-145
HCT-15 = system: HCT-15
NCI-H23 = system: NCI-H23
OVCAR-3 = system: OVCAR-3
OVCAR-8 = system: OVCAR-8
HT-29 = system: HT-29
SK-MEL-28 = system: SK-MEL-28
T47D = system: T47D
UO-31 = system: UO-31
HL-60 = system: HL-60

| Compound | GI50 (UACC-62) | GI50 (SF-295) | GI50 (RXF 393) | GI50 (M14) | GI50 (PC-3) | GI50 (786-0) | GI50 (MDA-MB-231) | GI50 (HCC 2998) | GI50 (NCI-H226) | GI50 (SK-MEL-2) | GI50 (DU-145) | GI50 (HCT-15) [µM] | GI50 (NCI-H23) | GI50 (OVCAR-3) | GI50 (OVCAR-8) | GI50 (HT-29) | GI50 (SK-MEL-28) | GI50 (T47D) | GI50 (UO-31) | GI50 (HL-60) |
| --- | --- | --- | --- | --- | --- | --- | --- | --- | --- | --- | --- | --- | --- | --- | --- | --- | --- | --- | --- | --- |
| Clc1ccc(Nc2nn3c(CCCCCCCCc4nnc5sc(Nc6ccc(Cl)cc6)nn45)nnc3s2)cc1 | > 100 µM (inactive) | 36 µM (inactive) | > 100 µM (inactive) | > 100 µM (inactive) | > 100 µM (inactive) | 51.6 µM (inactive) | 29.4 µM (inactive) | > 100 µM (inactive) | > 100 µM (inactive) | > 100 µM (inactive) | > 100 µM (inactive) | > 100 | > 100 µM (inactive) | > 100 µM (inactive) | > 100 µM (inactive) | 49.3 µM (inactive) | > 100 µM (inactive) | > 100 µM (inactive) | > 100 µM (inactive) |  |
| CCOP(=O)(OCC)/C(F)=C/c1ccccc1 | > 100 µM (inactive) | > 100 µM (inactive) | > 100 µM (inactive) | > 100 µM (inactive) | > 100 µM (inactive) | > 100 µM (inactive) | > 100 µM (inactive) | > 100 µM (inactive) |  | > 100 µM (inactive) | > 100 µM (inactive) | > 100 | > 100 µM (inactive) | > 100 µM (inactive) | > 100 µM (inactive) | > 100 µM (inactive) | > 100 µM (inactive) | > 100 µM (inactive) | 95.9 µM (inactive) | > 100 µM (inactive) |
| Cc1cn(C2CC(O)C(CO[Si](C)(C)C(C)(C)C)OC2OC(C)C)c(=O)[nH]c1=O (stereo not drawn) | > 100 µM (inactive) | 65 µM (inactive) | 34 µM (inactive) | 34.9 µM (inactive) | 33.6 µM (inactive) | 16.6 µM (inactive) | 35.2 µM (inactive) | 24.5 µM (inactive) | 41.9 µM (inactive) | 36 µM (inactive) | > 100 µM (inactive) | 58.5 | 39.6 µM (inactive) | 20.6 µM (inactive) | 33.5 µM (inactive) | 20 µM (inactive) | 41 µM (inactive) | 72.3 µM (inactive) | 44.8 µM (inactive) |  |
| CN1CN(c2ccccc2)C2(CCN(Cc3csc4ccccc34)CC2)C1=O | 22.8 µM (inactive) | 11.8 µM (inactive) | 16.6 µM (inactive) | 13.7 µM (inactive) | 9.27 µM (inactive) | 19.4 µM (inactive) | > 10 µM (inactive) | 13.4 µM (inactive) | 21 µM (inactive) |  | 49.2 µM (inactive) | 14.5 | 6.44 µM (inactive) | 8.85 µM (inactive) | 16.2 µM (inactive) | 4.83 µM (inactive) | 22.1 µM (inactive) | 5.11 µM (inactive) | 3.71 µM (inactive) | 4.39 µM (inactive) |
| CC(=O)O[C@H]1C[C@H]2[C@@H]([C@H](OC(C)=O)C[C@@H]3CC4(CC[C@@]32C)OOC2(CCCCC2)OO4)[C@@H]2CC[C@H]([C@H](C)CCC(N)=O)[C@@]12C | 2.7 µM (inactive) | 3.67 µM (inactive) | 2.76 µM (inactive) | 3.33 µM (inactive) | 1.62 µM (inactive) | 1.81 µM (inactive) | 1.95 µM (inactive) | 3.63 µM (inactive) | 2.46 µM (inactive) | 1.78 µM (inactive) | 1.93 µM (inactive) | 2 | 1 µM (active) | 1.54 µM (inactive) | 2.14 µM (inactive) | 3.4 µM (inactive) | 8.93 µM (inactive) | 1.63 µM (inactive) |  | 1.69 µM (inactive) |
| CC(=O)O[C@H]1CC[C@H]2[C@@H]3CCC4=CC(=O)C=C[C@]4(O)[C@H]3CC[C@]12C | 42.3 µM (inactive) | 16.6 µM (inactive) | 20.6 µM (inactive) | 32.1 µM (inactive) | 30.1 µM (inactive) | 50.6 µM (inactive) | > 82.8 µM (inactive) | 45.1 µM (inactive) | 16.6 µM (inactive) | 22.1 µM (inactive) | > 50.4 µM (inactive) | 29.6 | 9.91 µM (inactive) | 42.1 µM (inactive) | 19.1 µM (inactive) |  | 28.2 µM (inactive) | 13.3 µM (inactive) | 55.5 µM (inactive) |  |
